# Experimental data as given in ChEMBL document CHEMBL1156829 (Proc Natl Acad Sci U S A, 2008).
# Assays:
# [1] = NOVARTIS: Cytotoxicity against human hepatocellular carcinoma cell line (Huh7); assay type: toxicity, cell-based, Huh-7; conditions: Huh7 cells (hepatocellular carcinoma cell line)
# Plasmodium falciparum [2] = experiment: NOVARTIS: Inhibition of Plasmodium falciparum W2 (drug-resistant) proliferation in erythrocyte-based infection assay; assay type: functional, organism-based; conditions: Plasmodium falciparum, W2; read-out: EC50
# Plasmodium falciparum [3] = experiment: NOVARTIS: Inhibition of Plasmodium falciparum 3D7 (drug-susceptible) proliferation in erythrocyte-based infection assay; assay type: functional, organism-based; conditions: Plasmodium falciparum, 3D7
SMILES,CC50 [1] [nM],EC50 (Plasmodium falciparum [2]) [nM],EC50 (Plasmodium falciparum [3]) [nM]
CN1C=CC=CC1=CC=C1C=Nc2ccccc21,20900,232,236
COc1cccc(/C=C2\SC(=Nc3ccccc3)NC2=O)c1OC,> 100000,1100,521
CCOC(=O)c1cnc2ccc(C(C)C)cc2c1O,> 100000,1140,1150
NN1C(=O)NC(=O)C1Nc1cccc([N+](=O)[O-])c1 (configuration not stated),> 12700,139,976
COc1cccc(C(=O)NC(c2ccccc2OC)c2cc(Cl)c3cccnc3c2O)c1 (configuration not stated),> 100000,1150,1200
COc1cc(OC)cc(C(=O)Nc2cc(C(=O)N3CCC(Cc4ccccc4)CC3)ccc2N2CC3CC(C2)c2cccc(=O)n2C3)c1 (configuration not stated),50300,548,1870
O=C(O)c1cccc(NC(=O)c2ccc(N3C(=O)c4ccc(C(=O)Nc5cccc(C(=O)O)c5)cc4C3=O)cc2)c1,> 100000,1140,> 12500
CCC(CO)NCC(O)Cn1c2ccc(Br)cc2c2cc(Br)ccc21 (configuration not stated),11200,126,526
CN1CCC(NCCc2ccc(Cl)cc2)CC1,18900,210,909
OC(CNC1CCCCC1)Cn1c2ccccc2c2ccccc21 (configuration not stated),18000,198,483
O=C(NC1CC1)c1ccc(N2CCC(Cc3ccccc3)CC2)c([N+](=O)[O-])c1,53700,619,212
COc1ccc(C=NNc2cc(C)nc3ccccc23)cc1,18900,207,228
CC1CCN(S(=O)(=O)c2ccc(C(=O)NCc3ccco3)cc2)CC1,> 100000,1090,894
O=C(C1CC1)N1CCc2cc(Br)cc(S(=O)(=O)N3CCCC3)c21,> 100000,1120,929
CCc1ccc(NC(=O)COC(=O)c2cccs2)cc1,> 100000,1110,4640
Fc1ccc(CCNc2ncnc3c2[nH]c2ccccc23)cc1,12000,133,257
CC(C)(C)C(=O)NCCNc1ccc([N+](=O)[O-])cc1C(F)(F)F,> 100000,1110,2260
CCCCCCCCCCOC(=O)Cn1c(C)[n+](C)c2ccccc21,58100,644,> 12500
O=C(NCCCN1CCOCC1)c1c[nH]c2ccc(S(=O)(=O)N3CCc4ccccc43)cc2c1=O,> 100000,1110,610
CC(=O)N(C1=C(N2CCCC2)C(=O)c2ccccc2C1=O)c1cccc(F)c1,29000,323,406
CCC(=O)Nc1ccc2nc(SCC(=O)Nc3ccc(C(C)=O)cc3)sc2c1,> 100000,1110,> 12500
COCCN(Cc1cc2ccc(F)cc2nc1N1CCCCCC1)C(=O)c1ccoc1,> 100000,1110,5200
COc1ccc(C2C(C(C)=O)=C(O)C(=O)N2CCCn2ccnc2)c(OC)c1 (configuration not stated),> 100000,1110,4480
Nc1nonc1-n1nnc(C(=O)NN=Cc2cc(Br)cs2)c1-c1ccccc1,> 100000,1100,692
COc1ccc(S(=O)(=O)N2CCC(c3nnc(-c4ccccc4OC)o3)CC2)cc1,> 100000,1100,2300
CCOC(=O)N1CCC(n2c(SCC(=O)N3CCCCCC3)nc3ccccc3c2=O)CC1,> 100000,1090,7340
Nc1ccc(C(=O)NN=Cc2cccc([N+](=O)[O-])c2)cc1,> 10000,112,298

SMILES,CC50 [1] [nM],EC50 (Plasmodium falciparum [2]) [nM],EC50 (Plasmodium falciparum [3]) [nM]
CCOC(=O)c1c(C)n(-c2ccccc2)c2ccc(OC(=O)c3ccco3)cc12,> 100000,1140,607
CC(C)CN1C(=O)c2ccccc2C(C(=O)Nc2ccc(CN3CCC(C)CC3)cc2)C1c1cccs1 (configuration not stated),> 100000,1130,2050
Cc1cccc(-c2cc(C(=O)NC3CCN(Cc4ccccc4)CC3)cc(-n3cnnn3)c2)c1,50100,570,372
Cc1cccc(OC(C)C(=O)N2CCc3ccccc32)c1 (configuration not stated),> 100000,1140,3480
Cc1n(N)c2ccccc2[n+]1CC(=O)c1ccc([N+](=O)[O-])cc1,> 100000,1140,1950
c1ccc(CCNC2CCN(Cc3ccccc3)CC2)cc1,43500,500,1470
O=[N+]([O-])c1cc(Br)c(Nc2ccccc2)c([N+](=O)[O-])c1,6600,75.8,167
COc1cc2ccccc2cc1C(=O)NCCOC12CC3CC(CC(C3)C1)C2,> 100000,1140,3500
Cc1ccc(-c2cc(C(=O)OCC(=O)c3cccc([N+](=O)[O-])c3)c3cc(C)ccc3n2)cc1,> 100000,1090,> 12500
CCC(C)(C)c1ccc(OCC(O)CNCc2ccccc2)c(C(C)(C)CC)c1 (configuration not stated),9200,100,361
Cc1ccccc1Cn1c(C)c[n+]2ccsc12,> 10000,113,1280
COc1ccc(C2CC(c3cccs3)=NN2C(=O)CSc2nnc(CNC(=O)c3cccs3)n2-c2cc(C)ccc2C)cc1 (configuration not stated),> 100000,1140,> 8550
O=C(c1ccccc1)C1NC1c1ccc(Br)cc1 (configuration not stated),> 100000,1120,989
O=C(NC1CC1)C1CCN(c2cccc3c2C(=O)N(Cc2cccc(C(F)(F)F)c2)C3=O)CC1,> 100000,1110,2160
CCCc1c(CC)c(=N)c2ccccc2n1C,> 100000,1140,762
CCCCN(CCCC)S(=O)(=O)c1cc(Br)cc2c1N(C(C)=O)CC2,> 100000,1090,3290
O=C1CC(c2ccccc2)CC2=C1C(c1ccccc1[N+](=O)[O-])Nc1ccccc1N2 (configuration not stated),> 100000,1110,3470
COc1ccccc1C(=O)NC1CCN(CC(O)CN(Cc2ccccc2)S(=O)(=O)c2ccccc2)C1 (configuration not stated),> 10000,115,215
CC(=O)Nc1ccc2c(c1)C(=O)N(C(C(=O)NCC(=O)O)C1CCCCC1)[C@@H](CCC(=O)O)C(=O)N2 (some centres not stated),> 10000,109,> 418
CC1=C(C(=O)OC(C)C)C(c2ccc([N+](=O)[O-])cc2)C2=C(CCCC2=O)N1 (configuration not stated),> 100000,1140,6230
CCOC(=O)c1cnn(-c2ccnc3cc(Cl)ccc23)c1CNC(C)c1ccco1 (configuration not stated),38900,448,795
COc1ccc(C2C(C(=O)Nc3cccc(C(F)(F)F)c3)c3ccccc3C(=O)N2C2CCCCC2)cc1 (configuration not stated),> 100000,1130,1830
CC(C)(C)c1ccc(C(=O)C[n+]2cc(-c3ccccc3)n3c2CCC3)cc1,43000,470,1140
S=C(NCc1ccco1)NN=CC=NNC(=S)NCc1ccco1,> 10000,113,121
CC(C)c1ccc(NC(=O)/C=C/c2ccccc2Cl)cc1,> 10000,109,186
CN1CCc2c(sc3c2C(=O)NC(c2ccc(O)cc2)N3)C1 (configuration not stated),33600,378,755
CCOC(=O)c1sc(NC(=O)C(C)Sc2nnc(CNC(=O)c3cccc(F)c3)n2-c2cccc(C)c2)c(C(=O)OCC)c1C (configuration not stated),> 100000,1100,> 12500
